Results reported in BindingDB's records for patent US10774052 (Celgene CAR LLC; Sanofi, 2020).

Target: Fibroblast growth factor receptor 4 (Homo sapiens, UniProt P22455)
Test: Omnia Assay Protocol for Potency Assessment Against (method a)
Protocol: A solution of 1.4×ATP (AS001A) and 5× Tyr-Sox conjugated peptide substrate (KNZ3101) were prepared in 1× kinase reaction buffer consisting of 20 mM Tris, pH 7.5, 5 mM MgCl2, 1 mM EGTA, 5 mM β-glycerophosphate, 5% glycerol (10× stock, KB002A) and 0.2 mM DTT (DS001A). […] The serially diluted compounds were prepared on a Tecan EV0100. A second addition of 10 μl of Tyr-Sox FGFR4 substrate was added to each well and the kinase reactions were started with the addition of 35 μL of 1.4×ATP. The reactions were monitored every 71 seconds for 240 minutes at λex360/λem485 in a Synergy plate reader from BioTek (Winooski, Vt.).

Chain of Fibroblast growth factor receptor 4 (P22455 whole entry): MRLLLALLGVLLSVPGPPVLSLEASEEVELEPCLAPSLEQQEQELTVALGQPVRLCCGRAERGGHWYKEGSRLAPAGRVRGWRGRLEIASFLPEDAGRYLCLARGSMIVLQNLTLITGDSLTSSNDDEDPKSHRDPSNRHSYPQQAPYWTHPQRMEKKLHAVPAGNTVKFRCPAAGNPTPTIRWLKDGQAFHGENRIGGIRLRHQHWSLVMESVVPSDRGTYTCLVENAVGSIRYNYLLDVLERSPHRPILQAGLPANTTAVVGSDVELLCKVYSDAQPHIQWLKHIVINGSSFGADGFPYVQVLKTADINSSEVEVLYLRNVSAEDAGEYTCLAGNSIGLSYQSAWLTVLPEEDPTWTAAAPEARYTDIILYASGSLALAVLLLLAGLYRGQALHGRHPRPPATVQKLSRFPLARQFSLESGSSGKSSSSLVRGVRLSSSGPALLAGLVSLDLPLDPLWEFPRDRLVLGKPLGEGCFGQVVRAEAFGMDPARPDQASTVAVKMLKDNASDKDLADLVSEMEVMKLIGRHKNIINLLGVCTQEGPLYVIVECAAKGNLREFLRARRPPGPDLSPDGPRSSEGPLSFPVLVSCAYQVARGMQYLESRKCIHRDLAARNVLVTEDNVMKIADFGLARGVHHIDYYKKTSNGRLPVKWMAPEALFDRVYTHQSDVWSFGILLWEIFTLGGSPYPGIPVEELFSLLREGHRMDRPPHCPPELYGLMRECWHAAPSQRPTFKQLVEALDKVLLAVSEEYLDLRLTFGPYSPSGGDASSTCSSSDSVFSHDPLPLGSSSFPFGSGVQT

For `C=CC(=O)Nc1cc(C2=CCN(CC)CC2)ccc1Nc1ncc2c(n1)N(CC)C(=O)N(c1cc(OC)cc(OC)c1)C2` [US10774052, Compound I-56], the IC50 was less than 0.1 µM.
